In patent US10647680B2, “Urea compound, preparation method therefor and medical use thereof” (Ancureall Pharmaceutical (Shanghai) Co., Ltd., priority 2016, dated 2020):

Experiments:
Type in all cases: cell-based
[1] = test system: PC-9 (EGFR exon19 E746-A750 deletion); test: In vitro growth inhibition (GI50), PC-9; details: Homo sapiens; PC-9, EGFR DelE746-A750
From the text: (§1) Tumor cell line is an effective cell model for studying the inhibition of tumor cell growth or proliferation in vitro. In the present invention, a representative tumor cell line was selected to determine the cell growth inhibition activity of the present compound. All cell lines used were from ATCC, DSMZ, and the Cell Bank of the Chinese Academy of Sciences. Cell culture conditions and methods were in accordance with the requirements of each cell line. Cells were subcultured in vitro for no more than 3 passages each time, and as required, single-clone purification and identification of cell lines could be carried out.
(§2) The cell culture media used were RPMI1640 (Gibco), MEM (Gibco), McCOY'S5A (Gibco), and IMDM (Gibco). The complete medium was prepared by supplement with 5˜20% fetal calf serum (Gibco), 1% double-antibiotics (10000 units/mL penicillin and 10000 units/mL), 2 mM glutamine or 1 mM sodium pyruvate, respectively.
(§3) Human epidermal cancer cell line A431 (EGFR WT, amplification and high expression, from Shanghai Cell Bank of Chinese Academy of Sciences and ATCC), human lung cancer cell line NCI-H292 (EGFR WT, purchased from Shanghai Cell Bank of Chinese Academy of Sciences), NSCLC cell lines PC-9 and HCC827 (EGFR exon19 E746-A750 deletion, two cell lines are sensitive to the first-generation EGFR PTK inhibitor), NSCLC cell line NCI-H1975 (EGFR L858R/T790M and the first-generation EGFR inhibitor resistance, ATCC) were cultured with 1×RPMI1640 complete medium (supplement with 10% FBS), respectively.
(§4) Adherent cells were digested with 0.25% pancreatin-EDTA (Gibco). The suspension cells were collected by centrifugation. The supernatant was discarded and the cell pellet was resuspended and counted. Different cell concentrations (5˜10×10^4 cells/mL) were prepared according to the growth cycle of each cell line and then seeded on a 96-well plate (Corning), 100 μL/well. The cells were incubated overnight at 37° C., 5% CO2. The compounds were added to the cells on the second day with 2 wells in parallel. The final concentration of organic solvent shall not exceed 1%. The cells were continually incubated for 3 to 5 days, and then subjected to MTT assay.
(§5) The compound of the present invention and the control compound were dissolved in DMSO (Sigma) respectively, with the purity of more than 98%. The compound was stored in a concentration of 10 mM at −20° C. and diluted to 2- or 10-fold series prior to use.
(§6) Dojindo CCK8 reagent kit was used as MTT assay. THERMO […] FC meter was used as microplate reader.
(§7) For adherent cells, culture medium was removed and immediately replaced with the fresh prepared medium which contains 10% CCK8 reagent (100 μL/well). For the suspension cells, CCK8 was directly added to 10% of the final concentration. The cells were continually incubated for 1˜4 h. When a dark yellow color could be observed in the solvent control wells, the absorbance value at OD450 nm was measured and the cell growth rate was calculated according to the following formula: Cell Growth Rate (%)=100*(T−T0)/(C−T0) T=optical density of drug treatment cell well—optical density of blank control well; T0=optical density of cell well before drug treatment—optical density of blank control well; C=optical density of cell well of solvent control group—optical density of blank control well. The concentration value of 50% inhibition of cell growth (GI50) was calculated according to the drug concentration and cell growth rate curve. The experiment was independently repeated 1˜3 times, and subject to biological statistical analysis. 4. Experimental Results
(§8) Tumor cell growth inhibition test was performed by selecting representative compounds (compounds 4, 11, 12, 16, 27, 68, 71, 77, 79, 89 and 116 of the present invention). The initial concentration of the compound was 5,000 nM, then it was serially diluted by 2-fold or 10-fold to 0.01 nM. The GI50 value of each test compound was calculated according to the GI50 assay and calculation method. […]

[2] = test system: HCC827 (EGFR exon19 E746-A750 deletion); test: In vitro growth inhibition (GI50), HCC827; details: Homo sapiens; HCC827, EGFR DelE746-A750
From the text: as §1, §2, §3, §4, §5, §6, §7, §8

[3] = test system: ZR-75-30 (HER2/ErbB2 amp); test: In vitro growth inhibition (GI50), ZR-75-30; details: Homo sapiens
From the text: as §1, §2
Human gastric cancer cell line NCI-N87 (HER2/ErbB2 amp, ATCC), human breast cancer cell line HCC1954 (HER2/ErbB2 amp, ATCC) and ZR-75-30 (HER2/ErbB2 amp, ATCC), human adenocarcinoma cell line AU565 (HER2/ErbB2 amp, ATCC), human lung squamous cell carcinoma cell line NCI-H2170 (HER2/ErbB2 amp, ATCC), human bronchioalveolar adenocarcinoma cell line NCI-H1781 (HER2/ErbB2 Ins G776V,C mutant type, ATCC) were cultured with a 1×RPMI1640 complete medium (10% FBS), respectively. Human lung adenocarcinoma cell line Calu-3 (HER2/ErbB2 amp, ATCC) was cultured with 1×MEM, 10% FBS, 1% double antibody, 1% NEAA (Gibco), 2 mM glutamine and 1 mM sodium pyruvate. The human breast cancer cell line SK-BR-3 (HER2/ErbB2 amp, ATCC) was cultured with a McCOY'S5A complete medium (10% FBS).
as §4, §5, §6, §7
Tumor cell growth inhibition test was performed by selecting representative compounds (compounds 4, 11, 12, 16, 27, 68, 71, 77, 79, 89 and 116 of the present invention). […]

[4] = test system: H1299 (NRAS Q61K mutant type); test: In vitro growth inhibition (GI50), H1299; details: Homo sapiens, NCI-H1299
From the text: as §1, §2
Human large cell lung cancer cell NCI-H460 (KRAS […] mutant type, ATCC), human non-small cell lung cancer cell line H1299 (NRAS Q61K mutant type, ATCC), human melanoma cell line A375 (BRAF V600E mutant type, Shanghai Cell Bank of Chinese Academy of Sciences), human colon cancer cell line HCT116 (KRAS G13D mutant type, Shanghai Cell Bank, Chinese Academy of Sciences) were cultured in a complete medium of 1×RPMI1640 (10% FBS), respectively. Human non-small cell lung cancer cells A549 (KRAS G12S mutant type, Shanghai Cell Bank, Chinese Academy of Sciences) were cultured in a complete medium of 1× Ham's supplemented with 10% FBS, 1% double antibody, and 2 mM glutamine.
as §4, §5, §6, §7
Tumor cell growth inhibition test was performed by selecting representative compounds (compounds 4, 11, 12, 16, 27, 68, 71, 77, 79, 89 and 116 of the present invention). The initial concentration of the compound was 5,000 nM, then it was serially diluted by 2-fold or 10-fold to 0.01 nM. […]

Measured: GI50

CC(C)(C)c1cc(NC(=O)Nc2ccc(-n3cnc4cc(O)ccc43)cc2)no1 [Compound 4, 1-(5-tert-butyl-isoxazol-3-yl)-3-[4-(5-hydroxy-benzimidazol-1-yl)-phenyl]-urea]
> 2.5 µM: all assays above

CC(C)(C)c1cc(NC(=O)Nc2ccc(-n3cnc4cc(OCCO)ccc43)cc2)no1 [Compound 11, 1-(5-tert-butyl-isoxazol-3-yl)-3-{4-[5-(2-hydroxy-ethoxyl)-benzimidazol-1-yl]-phenyl]-urea]
> 2.5 µM: all assays above

CC(C)(C)c1cc(NC(=O)Nc2ccc(-n3cnc4cc(OCCN5CCOCC5)ccc43)cc2)no1 [Compound 16, 1-(5-tert-butyl-isoxazol-3-yl)-3-{4-[5-(2-morpholin-4-yl-ethoxyl)-benzimidazol-1-yl]-phenyl}-urea]
> 2.5 µM: all assays above

CC(C)(C)c1cc(NC(=O)Nc2ccc(-n3cnc4ccc(OCCN5CCOCC5)cc43)cc2)no1 [Compound 27, 1-(5-tert-butyl-isoxazol-3-yl)-3-{4-[6-(2morpholin-4-yl-ethoxyl)-benzimidazol-1-yl]-phenyl}-urea]
> 2.5 µM: all assays above

CC(C)(C)c1cc(NC(=O)Nc2ccc(-n3cnc4ccccc43)cc2)[nH]n1 [Compound 68, 1-(4-benzimidazol-1-yl-phenyl)-3-(5-tert-butyl-2H-pyrazol-3-yl)-urea]
> 2.5 µM: all assays above

COc1ccc2c(c1)ncn2-c1ccc(NC(=O)Nc2cc(C(C)(C)C)n[nH]2)cc1 [Compound 71, 1-(5-tert-butyl-2H-pyrazol-3-yl)-3-[4-(5-methoxyl-benzimidazol-1-yl)-phenyl]-urea]
> 2.5 µM: all assays above

COCCOc1ccc2c(c1)ncn2-c1ccc(NC(=O)Nc2cc(C(C)(C)C)n[nH]2)cc1 [Compound 77, 1-(5-tert-butyl-2H-pyrazol-3-yl)-3-{4-[5-(2-methoxyl-ethoxyl)-benzimidazol-1-yl]-phenyl}-urea]
> 2.5 µM: all assays above

CC(C)(C)c1cc(NC(=O)Nc2ccc(-n3cnc4cc(OCCO)ccc43)cc2)[nH]n1 [Compound 79, 1-(5-tert-butyl-2H-pyrazol-3-yl)-3-{4-[5-(2-hydroxy-ethoxyl)-benzimidazol-1-yl]-phenyl]urea]
> 2.5 µM: all assays above

CC(C)(C)c1cc(NC(=O)Nc2ccc(-n3cnc4cc(OCCN5CCOCC5)ccc43)cc2)[nH]n1 [Compound 89, 1-(5-tert-butyl-2H-pyrazol-3-yl)-3-{4-[5-(2-morpholin-4-yl-ethoxyl)-benzimidazol-1-yl]-phenyl}-urea]
> 2.5 µM: all assays above

CC(C)(C)c1cc(N)n(C(=O)Nc2ccc(-n3cnc4ccccc43)cc2)n1 [Compound 116, 5-amino-3-tert-butyl-pyrazol-1-carboxylic acid (4-benzimidazol-1-yl-phenyl)-amide]
> 2.5 µM: all assays above
